Data from patent publication US20260184807A1, “Methods for Treating Rheumatoid Arthritis Using a Syndecan-1 Inhibitor or Syntenin-1 Inhibitor” (The United States Government as represented by the …, priority 2022, published 2026).

Test system: HUVECs
Experiment: Metabolite quantification in Syntenin-1 treated HUVECs (colorimetric assay)
Assay type: cell-based, human
Details: Syntenin-1 1000 ng/ml 24 h, HIF1αi 2 μM, mTORi 1 μM, FIGS. 13I-K
Protocol: HUVECs were treated with 20 Syntenin-1 (1000 ng/ml) for 0-60 mins to detect expression of GLUT1. HK2. PFK2, cMYC. HIF1α, and LDHA (FIG. 13B) or 0-48 h to detect HK2, PFK2, mTOR/RAPTOR and LDHA (FIG. 13C) and actin was visualized as equal loading, (n=3). HUVECs were treated with PBS or Syntenin-1 (1000 ng/ml) in the presence or absence of 2-DG (5 mM), cMYCi (50 μM) and/or mTORi (1 μM) or HIF1αi (2 μM) to quantify transcription of HIF1α (FIG. 13E, n=10), RAPTOR (FIG. 13F, n=7). TNF (FIG. 13H, n=5). […] HUVECs were treated with PBS or Syntenin-1 (1000 ng/ml) in the presence or absence of SDC-1 Ab (SDCab: 1:100). […] Data are presented as mean±SEM; significant differences were determined by the Mann-Whitney test, 2way ANOVA, or one-way ANOVA. *p<0.05. **p<0.01, ***p<0.001, ****p<0.0001.
FIGS. 20A-F show blood Syntenin-1 and SDC-1 relative levels are unaffected by RA therapy and glycolytic metabolites can modulate inflammatory factors and oxidative metabolites in Syntenin-1 reprogrammed endothelial cells. Relative expression of Syntenin-1 (FIG. 20A) or SDC-1 (FIG. 20B) was determined by RNAseq (Lewis M J, et al. Cell reports. 2019; 28:2455-2470 e2455) in blood from RA non-responsive (Non-R)(ΔDAS28≤0.6, n=16) or those with moderate (ΔDAS28≤1.2 & >0.6, n=22) or good response (ΔDAS28>1.2, n=21). […]
Metabolite quantification. […]

## CO[C@H]1C[C@@H]2CC[C@@H](C)[C@@](O)(O2)C(=O)C(=O)N2CCCC[C@H]2C(=O)O[C@H]([C@H](C)C[C@@H]2CC[C@@H](OCCO)[C@H](OC)C2)CC(=O)[C@H](C)/C=C(\C)[C@@H](O)[C@@H](OC)C(=O)[C@H](C)C[C@H](C)/C=C/C=C/C=C/1C [mTORi, Everolimus]
  oxidative metabolites, AMPK, PGC-1a, and citrate: unchanged
